Test results: article PMC9358932 (Chemical Science, 2022)
Where two headings read alike, the source gives them in different places. Each block holds one compound with its values, some of them ahead of it.

Assays:
[1] = target: T1, Cp149 reassembled capsids (Hepatitis B virus genotype D subtype ayw, UniProt P03146); experiment: biochemical; format: binding, Hepatitis B virus (HBV); conditions: ITC, 50 mM HEPES pH 7.5, 298 K
Cp149 dimer = experiment: Solution-state NMR chemical shift perturbations; format: binding, Hepatitis B virus (HBV); conditions: 4 molar equivalents of compound
[2] = target: T1, Cp149 reassembled capsids; conditions: ITC, TX100 value taken from previous data; cited from earlier work
many organisms = conditions: cited from earlier work

T1 sequence (P03146 1-149): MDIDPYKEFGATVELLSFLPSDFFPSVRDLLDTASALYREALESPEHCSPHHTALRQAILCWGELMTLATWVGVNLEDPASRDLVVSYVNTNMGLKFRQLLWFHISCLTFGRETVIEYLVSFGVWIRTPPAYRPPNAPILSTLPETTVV

Compound: CCCCCCc1ccc(O)cc1 [Compound 2a, 4-hexylphenol]
ΔH [1]: -6.0 ± 0.6 kcal/mol | Kd [1]: 13 ± 3 µM

Compound: NP40 [Compound 6g]
ΔH [1]: -3.41 ± 0.09 kcal/mol

Compound: CCC(C)(C)c1ccc(O)cc1 [Compound 4c, 4-tert-amylphenol]
ΔH [1]: -12.7 ± 1.2 kcal/mol | Kd [1]: 30 ± 4 µM

CSPs / pocket binding in words (Cp149 dimer): smallest CSPs
Compound: 4-hexylaniline [Compound 2e]

Compound: Triton X-100 [Compound 1a]
Kd [2]: 8.3 ± 0.5 µM | ΔH [2]: -4.59 ± 0.05 kcal/mol

CSPs / pocket binding in words (Cp149 dimer): rather small CSPs
Compound: 4’-heptylacetophenone [Compound 2d]

Compound: CCCc1ccc(O)cc1 [Compound 4b, 4-propylphenol]
ΔH [1]: -7 ± 4 kcal/mol | Kd [1]: 14 ± 7 µM

Compound: CC(C)c1ccc(O)cc1 [Compound 4a, 4-isopropylphenol]
ΔH [1]: -5 ± 3 kcal/mol | Kd [1]: 18 ± 7 µM

Compound: Reduced Triton X-100 [Compound 1b]
CSPs / pocket binding in words (Cp149 dimer): very small CSPs

Compound: CC(C)(C)CC(C)(C)c1ccc(O)cc1 [Compound 1c, 4-tert-octylphenol]
ΔH [1]: -4.79 ± 0.14 kcal/mol | Kd [1]: 7.5 ± 0.5 µM | CSPs / pocket binding in words (Cp149 dimer): as high as those derived for TX100 | toxicity / environmental pollutant (many organisms): toxic to many organisms
